Entries after “also recorded” stand apart in the source; their conditions may differ.

One data set relates to Vero cells. Briefly: Vero cell viability (ddhC cytotoxicity). In kind it is cell-based. Particulars: incubation with 1 mM ddhC.
Data set [1] has as its system ZIKV (MR766, PRVABC59, R103451). Nature of the data set: ZIKV replication and release from Vero cells.
In data set [2] the test system is RdRp from human rhinovirus type C (HRV-C). Briefly: HRV-C RdRp incorporation and inhibition. It is filed as biochemical. Particulars: for utilization by HRV-C RdRp: direct-incorporation experiments; for inhibition of HRV-C RdRp: in the presence of other rNTPs.
Another data set addresses Dengue virus (DV) RdRp (Dengue virus type 2, UniProt P29990). Nature of the data set: DV RdRp primed-template (primer extension) assay. The following applies: for incorporation by DV RdRp on addition to the extended primer: direct incorporation, primed-template assay; for inhibition of DV RdRp-catalyzed production of full-length RNA: in competition with natural ribonucleotides, increasing concentrations (1, 10, 100 and 300 μM); for chain termination of DV RdRp-catalyzed RNA synthesis: once incorporated, only a 16-nt product (n+1). It is filed as biochemical. An excerpt: FIG. 6(A)-6(B): DV RdRp-catalyzed RNA synthesis is inhibited by ddhCTP by a chain termination mechanism. A. Schematic of primer extension assay for evaluating DV RdRp activity. Elongation complexes are first assembled with a trinucleotide primer, 5′-pGGC (SEQ ID NO:1), and 20-nt RNA template (SEQ ID NO:2) in the presence of ATP and GTP to elongate the trinucleotide primer (extended primer; SEQ ID NO:3)) and position the enzyme on the template (SEQ ID NO:2) such that guanosine is in the first templating position (underlined). In the presence of CTP and UTP, DV RdRp catalyzes RNA synthesis to the end of the template (SEQ ID NO:5). […] B. Increasing concentrations of ddhCTP (1, 10, 100 and 300 μM) inhibits DV RdRp-catalyzed RNA synthesis. Reaction products resolved by denaturing PAGE from DV RdRp-catalyzed nucleoside incorporation in the presence of increasing concentrations of either ddhCTP or 3′-dCTP. In the absence of ddhCTP and 3′-dCTP, DV RdRp efficiently catalyzes RNA synthesis to the end of the template creating a 20-nt RNA product (n+5, lanes 2 and 8).
Molecular target for ddhCTP: Viperin is induced by both DNA and RNA viruses (8,44-51). However, the presence of a 2′-OH on ddhCTP should almost certainly preclude efficient utilization by DNA polymerases, viral or cellular. (52) In contrast, 3′-deoxyribonucleotides are well known inhibitors of viral RNA-dependent RNA polymerases (RdRps)(53). Because Dengue virus (DV) and other members of the Flavivirus family are known to be sensitive to viperin, we used the DV RdRp as our model to examine the effect of ddhCTP on RdRp activity. First, it was asked if ddhCTP is a substrate for DV RdRp. To do so, a previously described primed-template assay was used. (54) A trinucleotide is used to prime RNA synthesis in the presence of two ^32P-labeled rNTPs, producing a 15-nt product that is referred to here as the extended primer. […] Addition of UTP to the CMP-incorporated RNA led to further extension to the end of template. […] A more stringent test of chain terminator effectiveness is whether it can directly compete with natural ribonucleotides. […] The reduced efficacy of ddhCTP must be caused by the double bond between the 3′ and 4′ positions, and the corresponding impact on the detailed ribose conformation, as this is the only difference between ddhCTP and 3′-dCTP. The phylogeny of viral RdRp genes classifies these enzymes into three supergroups (55), with Flaviviral RdRps belonging to supergroup II. To determine if the observations with DV RdRp extend to other supergroups, we evaluated a member of supergroup I. Specifically, the RdRp from human rhinovirus type C (HRV-C) was used, a member of the Picornavirus family. […] However, in the presence of other rNTPs, HRV-C RdRp was not inhibited by ddhCTP, even though it was inhibited by 3′-dCTP.
Addition of UTP to the CMP-incorporated RNA, as expected, led to further extension to the end of template.

The target in the next data set is HCV RdRp (Hepatitis C virus genotype 1a, UniProt P27958). Nature of the data set: HCV RdRp inhibition by ddhCTP.
A further data set concerns the target poliovirus (PV) RdRp (Poliovirus type 1, UniProt P03300). It is filed as biochemical.
The target in a further data set is Zika virus (ZIKV) RdRp (Zika virus, UniProt Q32ZE1). Nature of the data set: ZIKV RdRp inhibition by ddhCTP. In kind it is biochemical.
Data set [3] has as its target T1, Rattus norvegicus (residues 51-361) viperin (Rvip) (Rattus norvegicus, UniProt O70600).
T1 sequence (O70600 51-360 limits assumed): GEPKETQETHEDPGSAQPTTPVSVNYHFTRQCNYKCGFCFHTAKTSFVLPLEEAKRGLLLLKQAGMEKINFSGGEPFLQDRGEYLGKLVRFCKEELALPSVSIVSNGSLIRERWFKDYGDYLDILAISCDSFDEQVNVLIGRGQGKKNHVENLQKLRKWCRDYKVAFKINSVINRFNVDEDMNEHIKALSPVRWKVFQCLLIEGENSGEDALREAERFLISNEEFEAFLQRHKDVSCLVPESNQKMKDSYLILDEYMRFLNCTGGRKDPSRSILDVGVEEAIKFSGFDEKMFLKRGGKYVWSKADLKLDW
Briefly: In vitro characterization of viperin (Rvip) activity: 5′dA formation / ddhCTP production. The following applies: 50 μM Rvip, 2 mM SAM, 1 mM nucleotide, 5 mM dithionite, 4 min.

Substrate in data set [4]: Nc1ccn([C@@H]2O[C@H](COP(=O)(O)OP(=O)(O)OP(=O)(O)O)[C@@H](O)[C@H]2O)c(=O)n1
Briefly: purified protein, by the assay type. The following applies: other: CTP as substrate of Rvip, 37.0 °C.

Sequence of Dengue virus (DV) RdRp (P29990 2492-3391 limits assumed): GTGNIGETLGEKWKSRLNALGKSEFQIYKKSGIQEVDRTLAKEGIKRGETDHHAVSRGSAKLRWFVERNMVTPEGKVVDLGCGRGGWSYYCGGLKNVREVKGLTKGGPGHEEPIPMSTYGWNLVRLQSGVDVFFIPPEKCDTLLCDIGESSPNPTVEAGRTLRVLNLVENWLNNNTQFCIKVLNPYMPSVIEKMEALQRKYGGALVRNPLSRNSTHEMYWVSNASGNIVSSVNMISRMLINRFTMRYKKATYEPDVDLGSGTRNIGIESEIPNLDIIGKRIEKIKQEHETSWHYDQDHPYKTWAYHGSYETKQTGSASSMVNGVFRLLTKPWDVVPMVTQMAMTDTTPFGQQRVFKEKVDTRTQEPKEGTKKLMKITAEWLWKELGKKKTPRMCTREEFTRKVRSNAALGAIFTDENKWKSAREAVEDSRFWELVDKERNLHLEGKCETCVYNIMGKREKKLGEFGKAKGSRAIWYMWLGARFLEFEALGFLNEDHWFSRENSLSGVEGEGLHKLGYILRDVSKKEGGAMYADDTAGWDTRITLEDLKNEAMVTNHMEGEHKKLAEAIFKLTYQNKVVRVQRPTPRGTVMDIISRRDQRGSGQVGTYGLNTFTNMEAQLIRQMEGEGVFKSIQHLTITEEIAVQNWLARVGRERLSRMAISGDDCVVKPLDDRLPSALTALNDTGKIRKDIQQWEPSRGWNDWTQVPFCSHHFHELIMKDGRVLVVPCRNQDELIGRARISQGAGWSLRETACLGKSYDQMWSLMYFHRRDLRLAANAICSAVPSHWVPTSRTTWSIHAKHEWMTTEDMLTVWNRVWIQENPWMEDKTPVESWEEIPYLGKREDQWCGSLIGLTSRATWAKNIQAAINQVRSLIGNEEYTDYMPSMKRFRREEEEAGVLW
Sequence of poliovirus (PV) RdRp (P03300 1749-2209 limits assumed): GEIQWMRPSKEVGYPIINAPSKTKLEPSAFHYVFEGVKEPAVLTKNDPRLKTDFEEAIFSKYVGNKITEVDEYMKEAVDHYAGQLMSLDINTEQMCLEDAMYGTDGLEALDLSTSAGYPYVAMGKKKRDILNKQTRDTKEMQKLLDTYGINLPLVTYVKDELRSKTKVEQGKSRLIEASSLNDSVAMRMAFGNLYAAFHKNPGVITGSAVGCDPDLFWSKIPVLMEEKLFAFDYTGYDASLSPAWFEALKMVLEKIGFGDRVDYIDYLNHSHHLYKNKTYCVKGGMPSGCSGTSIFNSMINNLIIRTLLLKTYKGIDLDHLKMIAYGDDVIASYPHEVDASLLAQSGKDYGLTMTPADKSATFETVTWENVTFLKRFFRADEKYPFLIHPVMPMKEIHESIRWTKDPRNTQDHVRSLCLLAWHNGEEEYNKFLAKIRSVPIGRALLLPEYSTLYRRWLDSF
Sequence of HCV RdRp (P27958 2421-3011): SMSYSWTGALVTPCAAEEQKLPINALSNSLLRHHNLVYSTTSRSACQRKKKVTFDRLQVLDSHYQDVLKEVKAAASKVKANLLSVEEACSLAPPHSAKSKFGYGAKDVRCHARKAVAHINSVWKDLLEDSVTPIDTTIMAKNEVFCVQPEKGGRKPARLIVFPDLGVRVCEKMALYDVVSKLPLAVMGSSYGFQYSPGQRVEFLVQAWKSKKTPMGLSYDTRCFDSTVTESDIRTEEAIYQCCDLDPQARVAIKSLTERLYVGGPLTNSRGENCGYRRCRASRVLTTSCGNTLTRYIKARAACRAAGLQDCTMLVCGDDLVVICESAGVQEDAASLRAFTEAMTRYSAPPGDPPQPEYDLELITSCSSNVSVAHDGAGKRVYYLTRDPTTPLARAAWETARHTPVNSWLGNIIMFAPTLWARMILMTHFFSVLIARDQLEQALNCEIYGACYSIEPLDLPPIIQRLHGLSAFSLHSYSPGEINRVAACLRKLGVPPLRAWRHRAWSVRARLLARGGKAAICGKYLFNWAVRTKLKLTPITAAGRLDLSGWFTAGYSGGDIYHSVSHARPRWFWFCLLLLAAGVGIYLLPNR
Sequence of Zika virus (ZIKV) RdRp (Q32ZE1 2517-3419): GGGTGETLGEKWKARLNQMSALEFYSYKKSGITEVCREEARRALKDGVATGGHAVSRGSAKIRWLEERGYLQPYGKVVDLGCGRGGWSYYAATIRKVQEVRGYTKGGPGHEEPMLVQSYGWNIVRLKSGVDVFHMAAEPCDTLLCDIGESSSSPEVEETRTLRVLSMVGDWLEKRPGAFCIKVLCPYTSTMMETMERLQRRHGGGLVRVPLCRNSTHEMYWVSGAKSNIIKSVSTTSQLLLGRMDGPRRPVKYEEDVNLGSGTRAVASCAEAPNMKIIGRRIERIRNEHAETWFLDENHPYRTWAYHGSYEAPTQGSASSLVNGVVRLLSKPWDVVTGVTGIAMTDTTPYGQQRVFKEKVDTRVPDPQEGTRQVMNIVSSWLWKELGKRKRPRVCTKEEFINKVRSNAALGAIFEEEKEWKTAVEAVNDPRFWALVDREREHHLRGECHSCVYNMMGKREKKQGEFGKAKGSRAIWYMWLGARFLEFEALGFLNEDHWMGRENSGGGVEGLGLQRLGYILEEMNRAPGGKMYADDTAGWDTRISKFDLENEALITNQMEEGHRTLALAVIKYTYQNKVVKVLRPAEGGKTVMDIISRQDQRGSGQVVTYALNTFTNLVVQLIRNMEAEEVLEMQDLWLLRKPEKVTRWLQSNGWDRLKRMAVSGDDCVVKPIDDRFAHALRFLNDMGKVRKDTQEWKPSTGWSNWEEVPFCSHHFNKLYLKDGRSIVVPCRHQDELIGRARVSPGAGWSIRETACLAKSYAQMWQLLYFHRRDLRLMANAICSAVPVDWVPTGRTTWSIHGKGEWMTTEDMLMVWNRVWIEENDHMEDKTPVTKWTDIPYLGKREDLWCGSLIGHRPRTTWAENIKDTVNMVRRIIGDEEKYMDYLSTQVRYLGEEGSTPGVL

As to `Nc1ccn([C@@H]2OC(CO)=C[C@H]2O)c(=O)n1` [ddhC, 3′-deoxy-3′,4′-didehydro-cytidine], the Vero cell viability entry in the data set on Vero cells was “did not alter Vero cell viability”. For the same molecule, the “reduction in virus titer” value in [1] (ZIKV MR766, MOI of 0.1, all time points, Vero cells) is listed as 50-200 fold; in data set [1] (ZIKV MR766, MOI of 1.0, Vero cells) it was 5-50 fold. The “sensitivity to ddhC treatment” value in [1] (ZIKV PRVABC59 (Puerto Rico), Vero cells) is on record as “analogous sensitivities”; in data set [1] (ZIKV R103451 (Honduras), Vero cells) it was “analogous sensitivities”.
As for `Nc1ccn([C@@H]2OC(COP(=O)(O)OP(=O)(O)OP(=O)(O)O)=C[C@@H]2O)c(=O)n1` (stereo in doubt) [ddhCTP, 3′-deoxy-3′,4′-didehydro-cytidine triphosphate], in [2], the “utilization by HRV-C RdRp” value is “utilization” and the “inhibition of HRV-C RdRp” value is on record as “not inhibited; also recorded: poorly inhibited”. Moreover, on Dengue virus (DV) RdRp, the “incorporation by DV RdRp on addition to the extended primer” value is “led to incorporation”, the “inhibition of DV RdRp-catalyzed production of full-length RNA” value is recorded as “inhibits; also recorded: inhibited production of full-length RNA” and the “chain termination of DV RdRp-catalyzed RNA synthesis” value is reported as “terminate RNA synthesis”. At HCV RdRp, the “inhibition by ddhCTP utilization and chain termination” value is “susceptible to inhibition”. Also, the “inhibition of PV RdRp” value against poliovirus (PV) RdRp is “poorly inhibited”. The “inhibition by ddhCTP utilization and chain termination” value at Zika virus (ZIKV) RdRp is listed as “susceptible to inhibition”.
Take `Nc1ccn([C@@H]2O[C@H](COP(=O)(O)OP(=O)(O)OP(=O)(O)O)[C@@H](O)[C@H]2O)c(=O)n1` [CTP, cytidine triphosphate]: the “activation of 5′dA production relative to protein alone” value in data set [3] amounted to 30 fold.
For `Nc1ccn([C@@H]2O[C@H](COP(=O)(O)OP(=O)(O)OP(=O)(O)O)C[C@H]2O)c(=O)n1` [3′-dCTP, reference compound], in data set [2], the “utilization by HRV-C RdRp” value is reported as “utilization” and the “inhibition of HRV-C RdRp” value is reported as “inhibited”. The “efficacy of inhibition of full-length RNA, 3′-dCTP compared with ddhCTP” value at Dengue virus (DV) RdRp (compare lane 10 to lane 4 in FIG. 6B) is reported as “greater efficacy than ddhCTP”. Moreover, on Dengue virus (DV) RdRp, the “incorporation by DV RdRp on addition to the extended primer” value is listed as “led to incorporation”, the “inhibition of DV RdRp-catalyzed production of full-length RNA” value is recorded as “inhibited production of full-length RNA” and the “chain termination of DV RdRp-catalyzed RNA synthesis” value is “terminate RNA synthesis”. The “inhibition of PV RdRp” value against poliovirus (PV) RdRp is recorded as “inhibited”.

B1: Rattus norvegicus (residues 51-361) viperin (Rvip) (Rattus norvegicus) (protein)
chain: T1 sequence (O70600 51-360 limits assumed)
For orientation: Km means the concentration of substrate that gives half-maximal velocity. One may read the kcat as the maximal rate divided by the concentration of active sites. In the case of B1, in [4], the Km worked out at 183 ± 28 µM. The catalytic constant (kcat) in [4] (b22 prints minutes-1) amounted to 0.00308 ± 0.00012 s⁻¹.

The values are drawn from patent US11279728B2, “Broad spectrum viral inhibitor” (Albert Einstein College of Medicine, priority 2017, dated 2022).
